This is an account of results in publication PMC6691401 (Journal of Medicinal Chemistry, 2019).

The experiment has as its target Mab TrmD (Mycobacteroides abscessus, UniProt B1MDI3). Description: Isothermal titration calorimetry (ITC). Conditions: for LE: ligand efficiency; for GE (R^1): group efficiency of R^1; for GE: group efficiency of the added group. The class given is binding.

As usually defined, the Kd is a measure of binding affinity in units of concentration. Lower therefore signals a tighter complex.

Mab TrmD, sequence (B1MDI3 entry or part of it): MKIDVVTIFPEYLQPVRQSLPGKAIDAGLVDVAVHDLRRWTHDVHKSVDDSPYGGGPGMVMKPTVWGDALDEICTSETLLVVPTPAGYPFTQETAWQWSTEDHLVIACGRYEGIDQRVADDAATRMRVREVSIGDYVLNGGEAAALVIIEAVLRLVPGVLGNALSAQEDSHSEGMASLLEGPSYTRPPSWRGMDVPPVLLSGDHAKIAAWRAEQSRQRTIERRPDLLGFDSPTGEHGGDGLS

On to `CCOC(=O)c1cn[nH]c1` [Compound 1, ethyl 1H-pyrazole-4-carboxylate], for which the LE was 0.55 kcal mol^–1 per heavy atom. Besides, the LE (Table 1) is given as 0.55 kcal mol^–1 per heavy atom.

In the case of `O=C(OCc1ccccc1)c1cn[nH]c1` [Compound 3, Benzyl 1H-Pyrazole-4-carboxylate], the LE is on record as 0.41 kcal mol^–1 per heavy atom. The LE (Table 1) was 0.41 kcal mol^–1 per heavy atom.

Regarding `N#Cc1cccc(COC(=O)c2cn[nH]c2)c1` [Compound 6, 3-Cyanobenzyl 1H-Pyrazole-4-carboxylate], the LE (Table 1) is given as 0.36 kcal mol^–1 per heavy atom.

On to `COc1cccc(COC(=O)c2cn[nH]c2)c1` [Compound 7, 3-Methoxybenzyl 1H-Pyrazole-4-carboxylate], for which the LE was 0.39 kcal mol^–1 per heavy atom. Where the note is “Table 1”, the LE is 0.39 kcal mol^–1 per heavy atom.

With `COC(=O)COc1cccc(COC(=O)c2cn[nH]c2)c1` [Compound 8, 3-(2-Methoxy-2-oxoethoxy)benzyl 1H-Pyrazole-4-carboxylate], the LE is given as 0.32 kcal mol^–1 per heavy atom. Further, the LE (Table 2) is on record as 0.32 kcal mol^–1 per heavy atom.

`CCOc1cccc(COC(=O)c2cn[nH]c2)c1` [Compound 10, 3-Ethoxybenzyl 1H-Pyrazole-4-carboxylate]: the LE was 0.38 kcal mol^–1 per heavy atom. The LE (Table 2) is reported as 0.38 kcal mol^–1 per heavy atom.

With `CCOC(=O)c1cnn(CC#Cc2cc(COC(=O)c3cn[nH]c3)cc(OC)c2)c1` [Compound 12, Ethyl 1-(3-(3-(((1H-Pyrazole-4-carbonyl)oxy)methyl)-5-methoxyphenyl)prop-2-yn-1-yl)-1H-pyrazole-4-carboxylate], the LE is reported as 0.24 kcal mol^–1 per heavy atom. The LE (Table 2) is 0.24 kcal mol^–1 per heavy atom.

As for `COc1cc(COC(=O)c2cn[nH]c2)cc(N2CCCC2)c1` [Compound 13, 3-Methoxy-5-(pyrrolidin-1-yl)benzyl 1H-Pyrazole-4-carboxylate], the LE is reported as 0.31 kcal mol^–1 per heavy atom. The LE (Table 2) is reported as 0.31 kcal mol^–1 per heavy atom.

Consider `COc1cc(COC(=O)c2cn[nH]c2)cc(-c2cccnc2)c1` [Compound 14, 3-Methoxy-5-(pyridin-3-yl)benzyl 1H-Pyrazole-4-carboxylate], for which the LE was 0.31 kcal mol^–1 per heavy atom. In addition, the LE (Table 2) is given as 0.31 kcal mol^–1 per heavy atom.

With `COc1cc(COC(=O)c2cn[nH]c2)cc(Cc2cccnc2)c1` [Compound 15], the LE was 0.28 kcal mol^–1 per heavy atom. For the same compound, the LE (Table 2) is listed as 0.28 kcal mol^–1 per heavy atom.

`COc1ccc(Cn2ccc3ccc(-c4cc(N)n[nH]4)cc32)cc1` [Compound 24a, 5-(1-(4-Methoxybenzyl)-1H-indol-6-yl)-1H-pyrazol-3-amine]: the LE was 0.24 kcal mol^–1 per heavy atom. Where the note is “Table 4”, the “GE (R^1)” value was 0.04 kcal mol^–1 per heavy atom and the LE is 0.24 kcal mol^–1 per heavy atom.

For `COc1cccc(Cn2ccc3ccc(-c4cc(N)n[nH]4)cc32)c1` [Compound 24b, 5-(1-(3-Methoxybenzyl)-1H-indol-6-yl)-1H-pyrazol-3-amine], the GE was 0.14 kcal mol^–1 per heavy atom and the LE is given as 0.28 kcal mol^–1 per heavy atom. In addition, where the note is “Table 4”, the “GE (R^1)” value is on record as 0.14 kcal mol^–1 per heavy atom and the LE was 0.28 kcal mol^–1 per heavy atom.

In the case of `N#Cc1ccccc1Cn1ccc2ccc(-c3cc(N)n[nH]3)cc21` [Compound 24d, 2-((6-(3-Amino-1H-pyrazol-5-yl)-1H-indol-1-yl)methyl)benzonitrile], the LE is 0.28 kcal mol^–1 per heavy atom. Where the note is “Table 4”, the “GE (R^1)” value is listed as 0.15 kcal mol^–1 per heavy atom and the LE is listed as 0.28 kcal mol^–1 per heavy atom.

Consider `N#Cc1c(N)n[nH]c1-c1ccc2cc[nH]c2c1` [Compound 25, 3-Amino-5-(1H-indol-6-yl)-1H-pyrazole-4-carbonitrile], for which the GE is 0.91 kcal mol^–1 per heavy atom and the LE was 0.43 kcal mol^–1 per heavy atom. Also, the LE (Table 4) is listed as 0.43 kcal mol^–1 per heavy atom.

In the case of `N#Cc1c(N)n[nH]c1-c1ccc2ccn(Cc3cccnc3)c2c1` [Compound 26g, 3-Amino-5-(1-(pyridin-3-ylmethyl)-1H-indol-6-yl)-1H-pyrazole-4-carbonitrile], the “fold improvement in binding affinity (decrease of Kd) relative to 26f” value is “greater than 2 fold” and the LE is listed as 0.38 kcal mol^–1 per heavy atom. Besides, where the note is “Table 5”, the “GE (R^1)” value is reported as 0.28 kcal mol^–1 per heavy atom and the LE was 0.38 kcal mol^–1 per heavy atom.

For the compound `N#Cc1c(N)n[nH]c1-c1ccc2ccn(Cc3cccnc3O)c2c1` [Compound 26j, 3-Amino-5-(1-((2-hydroxypyridin-3-yl)methyl)-1H-indol-6-yl)-1H-pyrazole-4-carbonitrile], the LE is reported as 0.30 kcal mol^–1 per heavy atom. For the setting “Table 5”, the “GE (R^1)” value was 0.03 kcal mol^–1 per heavy atom and the LE was 0.30 kcal mol^–1 per heavy atom.

As to `N#Cc1c(N)n[nH]c1-c1ccc2ccn(Cc3ccc(O)nc3)c2c1` [Compound 26k, 3-Amino-5-(1-((6-hydroxypyridin-3-yl)methyl)-1H-indol-6-yl)-1H-pyrazole-4-carbonitrile], the LE is 0.32 kcal mol^–1 per heavy atom. Further, where the note is “Table 5”, the “GE (R^1)” value was 0.10 kcal mol^–1 per heavy atom and the LE is 0.32 kcal mol^–1 per heavy atom.

As to `N#Cc1c(N)n[nH]c1-c1ccc2ccn(Cc3ccncc3)c2c1` [Compound 26l, 3-Amino-5-(1-(pyridin-4-ylmethyl)-1H-indol-6-yl)-1H-pyrazole-4-carbonitrile], the “fold improvement in binding affinity (decrease of Kd) relative to 26f” value was 4 fold and the LE is on record as 0.39 kcal mol^–1 per heavy atom. In addition, where the note is “Table 5”, the “GE (R^1)” value is 0.31 kcal mol^–1 per heavy atom and the LE is given as 0.39 kcal mol^–1 per heavy atom.

For the compound `CN1CCCCC1Cn1ccc2ccc(-c3[nH]nc(N)c3C#N)cc21` (centres unmarked) [Compound 26n, 3-Amino-5-(1-((1-methylpiperidin-2-yl)methyl)-1H-indol-6-yl)-1H-pyrazole-4-carbonitrile], the LE is reported as 0.34 kcal mol^–1 per heavy atom. For the same compound, under “Table 5”, the “GE (R^1)” value was 0.16 kcal mol^–1 per heavy atom and the LE is reported as 0.34 kcal mol^–1 per heavy atom.

Turning to `CN1CCCC(Cn2ccc3ccc(-c4[nH]nc(N)c4C#N)cc32)C1` (centres unmarked) [Compound 26o, 3-Amino-5-(1-((1-methylpiperidin-3-yl)methyl)-1H-indol-6-yl)-1H-pyrazole-4-carbonitrile], the LE is 0.35 kcal mol^–1 per heavy atom. Where the note is “Table 5”, the “GE (R^1)” value is given as 0.20 kcal mol^–1 per heavy atom and the LE was 0.35 kcal mol^–1 per heavy atom.

For `N#Cc1c(N)n[nH]c1-c1ccc2c(Cl)cn(Cc3cccnc3)c2c1` [Compound 27g, 3-Amino-5-(3-chloro-1-(pyridin-3-ylmethyl)-1H-indol-6-yl)-1H-pyrazole-4-carbonitrile], the LE is listed as 0.28 kcal mol^–1 per heavy atom. For the same compound, the LE (Table 5) was 0.28 kcal mol^–1 per heavy atom.

Regarding `N#Cc1c(N)n[nH]c1-c1ccc2ccn(Cc3ccc(CN4CCCCC4)cc3)c2c1` [Compound 29b, 3-Amino-5-(1-(4-(piperidin-1-ylmethyl)benzyl)-1H-indol-6-yl)-1H-pyrazole-4-carbonitrile], for the setting “Table 6”, binding was characterised by a dissociation constant (Kd) of 70 ± 29 nM and the LE is on record as 0.31 kcal mol^–1 per heavy atom.
